The values that follow come from patent publication US20260317332A1, “BICYCLIC HETEROCYCLE COMPOUNDS FOR THE TREATMENT OF CANCER” (Hoffmann-La Roche Inc., priority 2023, published 2026).

Molecules are shown by their SMILES. pIC50: −log10 of the molar value.

The term pIC50 denotes the IC50 on a negative log10 scale, so that one unit is a factor of ten.

For test [1], the target named is T1, CD73 (Homo sapiens, UniProt P21589).
T1 sequence (P21589 27-574): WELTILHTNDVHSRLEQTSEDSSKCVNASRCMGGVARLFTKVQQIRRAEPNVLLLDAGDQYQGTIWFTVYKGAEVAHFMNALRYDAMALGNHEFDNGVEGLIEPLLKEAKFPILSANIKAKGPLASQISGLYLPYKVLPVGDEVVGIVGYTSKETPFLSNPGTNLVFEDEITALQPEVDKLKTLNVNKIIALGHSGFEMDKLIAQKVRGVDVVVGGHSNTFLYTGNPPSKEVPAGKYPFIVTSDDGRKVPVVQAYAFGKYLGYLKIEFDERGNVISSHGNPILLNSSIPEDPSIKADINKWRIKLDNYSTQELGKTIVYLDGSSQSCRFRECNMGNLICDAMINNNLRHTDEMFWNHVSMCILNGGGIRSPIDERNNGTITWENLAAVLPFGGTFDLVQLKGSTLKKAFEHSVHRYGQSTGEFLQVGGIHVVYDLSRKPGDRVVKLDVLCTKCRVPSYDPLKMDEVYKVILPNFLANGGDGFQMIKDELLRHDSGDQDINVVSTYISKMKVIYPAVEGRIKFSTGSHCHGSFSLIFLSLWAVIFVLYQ
Nature of the test: Human CD73 Biochemical Assay. To be noted: 0.05 nM recombinant CD73; AMP 5.56 μM final; 10 min at room temperature; LC/MS adenosine readout; read-out: Enzymatic IC50 against human CD73. Here is the method:
The purpose of this assay is to identify and characterize inhibitors of human CD73 enzymatic activity. Compound serial dilution (1:3) was prepared with Echo 555 liquid handler (Labcyte) into the corresponding wells of a 384-well plate. 10 μL of enzyme working solution (containing 0.05 nM recombinant CD73 protein, 10 mM Tris pH 7.5, 100 mM NaCl, 0.01% BSA, 0.2 mM Octyl glucoside and 1 mM NaH2PO4) was added to the assay plate and incubated with compounds for 15 minutes at room temperature. After adding 15 μL of AMP working solution (Containing 10 mM Tris pH 7.5, 100 mM NaCl, 0.01% BSA, 0.2 mM Octyl glucoside, with 5.56 μM of AMP final concentration) and incubate for 10 min at room temperature. Stop the reaction by adding 75 μL of stop solution (5% TCA in H2O containing 250 nM 13C5-adenosine) to each well for 10 min incubation. After centrifugation, 75 μL of the mixture was transferred to a new 384-well plate for LC/MS analysis.
Samples from the 384-well plates, were loaded onto an autosampler deck, then injected with ADDA-LC-MS/MS. The aqueous mobile phase is 0.1% formic acid in water. The organic mobile phase is 0.1% formic acid in acetonitrile. Flow rate is maintained at 0.8 mL/minute using Shimadzu pumps. The column is ACE 5 Phenyl, 50×2.1 mm. The analysis was performed on a SCIEX triple quadrupole mass spectrometer operating in positive ion mode. The effluent from the HPLC column was directly introduced into the electrospray ionization (ESI). Multiple reaction monitoring (MRM) is used to determine analyte and internal standard (IS) responses. The MRM for adenosine is 268.1/136.1, for 13C5-Adenosine (IS) is 273.2/136.2. The data is calculated using the peak area ratio (PAR) semi-quantitative method.

The target of test [2] is T1, CD73. Kind of test: CD73 Cellular Assay. In kind it is cell-based. Also on record: 40 μL of MDA-MB-231 cells (ATCC, HTB-26, breast cancer); host or cells: MDA-MB-231. To be noted: MDA-MB-231 cells; 200 μM AMP working solution; 45 min at 37° C.; malachite readout; read-out: Cellular IC50 against CD73. Here is the method: Compound serial dilution (1:3) was prepared with Echo 555 liquid handler (Labcyte) into the corresponding wells of a 384-well plate. 40 μL of MDA-MB-231 cells (ATCC, HTB-26, breast cancer, final concentration at 20,000 cells/mL) suspended in assay buffer (20 mM HEPES pH 7.4, 137 mM NaCl, 5.4 mM KCl, 1.3 mM CaCl2, 4.2 mM NaHCO3, 1 mg/mL glucose) were added into the corresponding wells of the plate. After incubating with compounds for 30 minutes, 40 μL of AMP working solution (200 μM AMP in assay buffer) was added into each well in the assay plate. The assay plate was then incubated in a 5% CO2 incubator (Thermo Fisher Scientific) at 37° C. for 45 min. After the reaction was completed, 50 μL of the supernatants was collected and transferred into a new 384 well plate. 10 μL of Malachite A was added to each well in the assay plate and incubated for 10 minutes. 10 μL of Malachite B was then added to each corresponding well of the plate and incubated for 30 minutes. Finally the absorbance value was read on the Envision plate reader at […]. Calculation percentage inhibition by using equation {% inhibition=100×[1−(X−MIN)/(MAX−MIN)]} where X equals to the well signal, Max equals signal of neutral control and MIN equals signal of inhibitor control.

Turning to `Cn1nc(O[C@H](c2ccc(F)c(OCC(F)(F)F)c2)C(F)F)c2cc(-c3c[nH]c(=O)[nH]c3=O)nnc21` [Example 3, 5-[3-[(1R)-2,2-difluoro-1-[4-fluoro-3-(2,2,2-trifluoroethoxy)phenyl]ethoxy]-1-methyl-pyrazolo[3,4-c]pyridazin-5-yl]-1H-pyrimidine-2,4-dione], the pIC50 in test [1] is 9.77; in test [2], 9.04.

For `Cn1nc(O[C@H](c2cc(OCC(F)F)ccn2)C(F)F)c2cc(-c3c[nH]c(=O)[nH]c3=O)nnc21` [Example 7, 5-[3-[(1R)-1-[4-(2,2-difluoroethoxy)-2-pyridyl]-2,2-difluoro-ethoxy]-1-methyl-pyrazolo[3,4-c]pyridazin-5-yl]-1H-pyrimidine-2,4-dione], the negative-log IC50 (pIC50) in test [1] was 10.10; in test [2] it was 9.23.

Regarding `Cn1nc(O[C@H](c2cc(OCC(F)(F)F)c(F)cn2)C(F)F)c2cc(-c3c[nH]c(=O)[nH]c3=O)nnc21` [Example 9A, 5-[3-[(1R)-2,2-difluoro-1-[5-fluoro-4-(2,2,2-trifluoroethoxy)-2-pyridyl]ethoxy]-1-methyl-pyrazolo[3,4-c]pyridazin-5-yl]-1H-pyrimidine-2,4-dione], the figures for the negative-log IC50 (pIC50) in test [1] and in test [2] were 9.96 and 9.14, respectively.

For `Cn1nc(O[C@H](c2ccnc(OCC(F)F)c2)C(F)F)c2cc(-c3n[nH]c(=O)[nH]c3=O)nnc21` [Example 13A, 6-[3-[(1R)-1-[2-(2,2-difluoroethoxy)-4-pyridyl]-2,2-difluoro-ethoxy]-1-methyl-pyrazolo[3,4-c]pyridazin-5-yl]-2H-1,2,4-triazine-3,5-dione], the figures for the negative-log IC50 (pIC50) in test [1] and in test [2] were 10.70 and 9.01, respectively.

`COCCOc1cc([C@@H](Oc2nn(C)c3nnc(-c4c[nH]c(=O)[nH]c4=O)cc23)C(F)F)ccc1F` [Example 15, 5-[3-[(1R)-2,2-difluoro-1-[4-fluoro-3-(2-methoxyethoxy)phenyl]ethoxy]-1-methyl-pyrazolo[3,4-c]pyridazin-5-yl]-1H-pyrimidine-2,4-dione]: the pIC50 in test [1] was 10.15; in test [2], 9.06.

In the case of `Cn1nc(O[C@H](c2ccnc(OCC(C)(F)F)c2)C(F)F)c2cc(-c3c[nH]c(=O)[nH]c3=O)nnc21` [Example 16, 5-[3-[(1R)-1-[2-(2,2-difluoropropoxy)-4-pyridyl]-2,2-difluoro-ethoxy]-1-methyl-pyrazolo[3,4-c]pyridazin-5-yl]-1H-pyrimidine-2,4-dione], the negative logarithm of the IC50 (pIC50) in test [1] is 10.40; in test [2], 9.27.

For `CCOc1ccnc([C@@H](Oc2nn(C)c3nnc(-c4c[nH]c(=O)[nH]c4=O)cc23)C(F)F)c1` [Example 20, 5-[3-[(1R)-1-(4-ethoxy-2-pyridyl)-2,2-difluoro-ethoxy]-1-methyl-pyrazolo[3,4-c]pyridazin-5-yl]-1H-pyrimidine-2,4-dione], the figures for the pIC50 in test [1] and in test [2] were 10.22 and 9.31, respectively.

Take `Cn1nc(O[C@H](c2cc(OCC#N)ccn2)C(F)F)c2cc(-c3c[nH]c(=O)[nH]c3=O)nnc21` [Example 21, 2-[[2-[(1R)-1-[5-(2,4-dioxo-1H-pyrimidin-5-yl)-1-methyl-pyrazolo[3,4-c]pyridazin-3-yl]oxy-2,2-difluoro-ethyl]-4-pyridyl]oxy]acetonitrile]: the negative-log IC50 (pIC50) in test [1] is 10.05; in test [2], 9.14.

As to `Cn1nc(O[C@H](c2cc(OCC3(C(F)(F)F)CC3)ccn2)C(F)F)c2cc(-c3c[nH]c(=O)[nH]c3=O)nnc21` [Example 23, 5-[3-[(1R)-2,2-difluoro-1-[4-[[1-(trifluoromethyl)cyclopropyl]methoxy]-2-pyridyl]ethoxy]-1-methyl-pyrazolo[3,4-c]pyridazin-5-yl]-1H-pyrimidine-2,4-dione], the pIC50 in test [1] is 10.10; in test [2] it was 9.13.

For `C[C@@H](Nc1cc([C@@H](Oc2nn(C)c3nnc(-c4c[nH]c(=O)[nH]c4=O)cc23)C(F)F)ccn1)C(F)(F)F` [Example 27, 5-[3-[(1R)-2,2-difluoro-1-[2-[[(1R)-2,2,2-trifluoro-1-methyl-ethyl]amino]-4-pyridyl]ethoxy]-1-methyl-pyrazolo[3,4-c]pyridazin-5-yl]-1H-pyrimidine-2,4-dione], the negative-log IC50 (pIC50) was 10.40 in test [1] and 9.32 in test [2].

As to `[2H]C([2H])([2H])C([2H])([2H])Oc1cc([C@@H](Oc2nn(C)c3nnc(-c4c[nH]c(=O)[nH]c4=O)cc23)C(F)F)ccn1` [Example 30, 5-[3-[(1R)-2,2-difluoro-1-[2-(1,1,2,2,2-pentadeuterioethoxy)-4-pyridyl]ethoxy]-1-methyl-pyrazolo[3,4-c]pyridazin-5-yl]-1H-pyrimidine-2,4-dione], the negative-log IC50 (pIC50) was 10.30 in test [1] and 9.22 in test [2].

`Cn1nc(O[C@H](c2ccnc(N3CCC(F)(F)CC3)c2)C(F)F)c2cc(-c3c[nH]c(=O)[nH]c3=O)nnc21` [Example 31, 5-[3-[(1R)-1-[2-(4,4-difluoro-1-piperidyl)-4-pyridyl]-2,2-difluoro-ethoxy]-1-methyl-pyrazolo[3,4-c]pyridazin-5-yl]-1H-pyrimidine-2,4-dione]: the pIC50 in test [1] is 10.30; in test [2], 9.26.

Turning to `Cn1nc(O[C@H](c2ccnc(NC3CCC(F)(F)CC3)c2)C(F)F)c2cc(-c3c[nH]c(=O)[nH]c3=O)nnc21` [Example 32, 5-[3-[(1R)-1-[2-[(4,4-difluorocyclohexyl)amino]-4-pyridyl]-2,2-difluoro-ethoxy]-1-methyl-pyrazolo[3,4-c]pyridazin-5-yl]-1H-pyrimidine-2,4-dione], the negative logarithm of the IC50 (pIC50) in test [1] was 10.30; in test [2], 9.42.
